Measurements taken from US8791139B2, “Anthranilic diamide derivatives” (Bayer Cropscience AG, priority 2010, dated 2014).

tested on: caterpillars of the armyworm (Spodoptera frugiperda); experiment: Spodoptera frugiperda test (SPODFR spray treatment); assay type: in vivo; conditions: 168 h, application rate 100 g/ha, after 7 days, read-out: activity (caterpillars killed)
Method: After 7 days, the effect in % is determined.

First: Cc1cc(Cl)cc(C(=O)NC(C)C)c1NC(=O)c1cc(CNS(=O)(=O)Cc2ccc(C(F)(F)F)cc2C(F)(F)F)nn1-c1ncccc1Cl [Example 52]
Second: Cc1cc(Cl)cc(C(=O)NC(C)C)c1NC(=O)c1cc(CN(C)S(=O)(=O)Cc2cc(C(F)(F)F)cc(C(F)(F)F)c2)nn1-c1ncccc1Cl [Example 56]
The pest or weed control at 100 g/ha of the first is lower: 83% for the first, 100% for the second.

Molecule `Cc1cc(Cl)cc(C(=O)NC2CC2)c1NC(=O)c1cc(CN(Cc2cc(C(F)(F)F)cc(C(F)(F)F)c2)S(C)(=O)=O)nn1-c1ncccc1Cl` [Example 59] has a pest or weed control at 100 g/ha of 100%.

same assay, conditions: 168 h, read-out: activity (caterpillars killed)

`Cc1cc(Cl)cc(C(=O)NC(C)C)c1NC(=O)c1cc(C(=O)Nc2ccc(C(F)(F)F)cc2)nn1-c1ncccc1Cl` [Example 4] and `Cc1cc(Cl)cc(C(=O)NC(C)C)c1NC(=O)c1cc(CNS(=O)(=O)c2ccc(C(F)(F)F)cc2)nn1-c1ncccc1Cl` [Example 46] are the same in pest or weed control at 100 g/ha: 83% for the first, 83% for the second.

tested on: not listed separately; experiment: logP by HPLC on reversed-phase columns (C18), EEC Directive 79/831 Annex V.A8; assay type: physicochemical; conditions: pH 2.7, log P
Method: The logP values reported in the table above and in the Preparation Examples were determined in accordance with EEC Directive 79/831 Annex V.A8 by HPLC (High Performance Liquid Chromatography) on reversed-phase columns (C18), with the following methods:
The LC-MS determination in the acidic range is carried out at pH 2.7 using the mobile phases 0.1% aqueous formic acid and acetonitrile (contains 0.1% formic acid), linear gradient from 10% acetonitrile to 95% acetonitrile
Calibration was carried out using unbranched alkan-2-ones (having from 3 to 16 carbon atoms) with known logP values (the logP values were determined by the retention times using linear interpolation between two successive alkanones).

Compared with `Cc1cc(Cl)cc(C(=O)NC(C)C)c1NC(=O)c1cc(C(=O)Nc2ccc(C(F)(F)F)cc2)nn1-c1ncccc1Cl` [Example 4], `Cc1cc(Cl)cc(C(=O)NC(C)C)c1NC(=O)c1cc(CNS(=O)(=O)c2ccc(C(F)(F)F)cc2)nn1-c1ncccc1Cl` [Example 46] is lower in chromatographic logP: 3.96 for the first, 3.47 for the second.

First: Cc1cc(Cl)cc(C(N)=O)c1NC(=O)c1cc(C#Cc2ccc(OC(F)(F)F)cc2)nn1-c1ncccc1Cl [Example 9]
Second: Cc1cc(Cl)cc(C(=O)NC(C)C)c1NC(=O)c1cc(CNS(=O)(=O)c2cccc(C(F)(F)F)c2)nn1-c1ncccc1Cl [Example 48]
The chromatographic logP of the first is higher: 3.94 for the first, 3.43 for the second.

`CNC(=O)c1cc(C#N)cc(C)c1NC(=O)c1cc(Nc2cc(C(F)(F)F)ccn2)nn1-c1ncccc1Cl` [Example 70] and `CNC(=O)c1cc(C#N)cc(C)c1NC(=O)c1cc(Nc2cccc(C(F)(F)F)n2)nn1-c1ncccc1Cl` [Example 69] are within 0.2 log units of each other in chromatographic logP: 2.76 for the first, 2.89 for the second.

Compared with `CNC(=O)c1cc(C#N)cc(C)c1NC(=O)c1cc(N2CCN(Cc3ccc(Cl)nc3)C2=O)nn1-c1ncccc1Cl` [Example 29], `CNC(=O)c1cc(Cl)cc(C)c1NC(=O)c1cc(N2CCN(Cc3ccc(Cl)nc3)C2=O)nn1-c1ncccc1Cl` [Example 28] is higher in chromatographic logP: 2.31 for the first, 2.64 for the second.

First: Cc1cc(Cl)cc(C(=O)NC(C)C)c1NC(=O)c1cc(CNS(=O)(=O)c2ccccc2)nn1-c1ncccc1Cl [Example 44]
Second: Cc1cc(Cl)cc(C(=O)NC(C)C)c1NC(=O)c1cc(CNS(=O)(=O)c2ccccc2Cl)nn1-c1ncccc1Cl [Example 38]
The chromatographic logP of the first is lower: 2.84 for the first, 3.06 for the second.

`Cc1cc(Cl)cc(C(=O)NC(C)C)c1NC(=O)c1cc(CNS(=O)(=O)Cc2cccc(C(F)(F)F)c2)nn1-c1ncccc1Cl` [Example 51] and `Cc1cc(Cl)cc(C(=O)NC(C)C)c1NC(=O)c1cc(CNS(=O)(=O)c2ccccc2C(F)(F)F)nn1-c1ncccc1Cl` [Example 45] are within 0.2 log units of each other in chromatographic logP: 3.42 for the first, 3.26 for the second.

First: Cc1cc(C#N)cc(C(=O)NC(C)(C)C)c1NC(=O)c1cc(C(=O)Cn2nnc(C(F)(F)F)n2)nn1-c1ncccc1Cl [Example 16]
Second: CNC(=O)c1cc(Cl)cc(C)c1NC(=O)c1cc(C(=O)Nc2cc(C(F)(F)F)cc(C(F)(F)F)c2)nn1-c1ncccc1Cl [Example 6]
The chromatographic logP of the first is lower: 3.66 for the first, 4.16 for the second.

same assay, conditions: reversed-phase HPLC column (C18), pH 2.7, HPLC reversed-phase C18, acidic range pH 2.7, 0.1% aqueous formic acid/acetonitrile; table of compounds of formula (I); read-out: log P

Going from `Cc1cc(Cl)cc(C(=O)NC(C)C)c1NC(=O)c1cc(CNS(=O)(=O)Cc2ccc(C(F)(F)F)cc2C(F)(F)F)nn1-c1ncccc1Cl` [Example 52] to `Cc1cc(Cl)cc(C(=O)NC(C)C)c1NC(=O)c1cc(CN(C)S(=O)(=O)Cc2cc(C(F)(F)F)cc(C(F)(F)F)c2)nn1-c1ncccc1Cl` [Example 56], the chromatographic logP rises from 3.92 to 4.37.

First: Cc1cc(Cl)cc(C(=O)NC(C)(C)C)c1NC(=O)c1cc(N2CCN(c3cc(C(F)(F)F)cc(C(F)(F)F)c3)C2=O)nn1-c1ncccc1Cl [Example 24]
Second: CNC(=O)c1cc(C#N)cc(C)c1NC(=O)c1cc(N2CCN(c3cc(C(F)(F)F)cc(C(F)(F)F)c3)C2=O)nn1-c1ncccc1Cl [Example 23]
The chromatographic logP of the first is higher: 5.29 for the first, 4.08 for the second.

First: Cc1cc(Cl)cc(C(=O)NC2CC2)c1NC(=O)c1cc(CN(Cc2cc(C(F)(F)F)cc(C(F)(F)F)c2)S(C)(=O)=O)nn1-c1ncccc1Cl [Example 59]
Second: Cc1cc(Cl)cc(C(=O)NC(C)C2CC2)c1NC(=O)c1cc(CN(Cc2cc(C(F)(F)F)cc(C(F)(F)F)c2)S(C)(=O)=O)nn1-c1ncccc1Cl (stereo not drawn) [Example 58]
The chromatographic logP of the first is lower: 4.05 for the first, 4.54 for the second.

Compared with `Cc1cc(C#N)cc(C(=O)NC(C)C2CC2)c1NC(=O)c1cc(CN(Cc2cc(C(F)(F)F)cc(C(F)(F)F)c2)S(C)(=O)=O)nn1-c1ncccc1Cl` (stereo not drawn) [Example 61], `Cc1cc(C#N)cc(C(=O)NC(C)C)c1NC(=O)c1cc(CN(Cc2cc(C(F)(F)F)cc(C(F)(F)F)c2)S(C)(=O)=O)nn1-c1ncccc1Cl` [Example 60] is lower in chromatographic logP: 4.12 for the first, 3.91 for the second.

Compared with `CNC(=O)c1cc(Cl)cc(C)c1NC(=O)c1cc(CNS(=O)(=O)c2cc(C(F)(F)F)cc(C(F)(F)F)c2)nn1-c1ncccc1Cl` [Example 36], `Cc1cc(C#N)cc(C(=O)NC(C)C)c1NC(=O)c1cc(N2CCN(c3cc(C(F)(F)F)cc(C(F)(F)F)c3)C2=O)nn1-c1ncccc1Cl` [Example 27] is higher in chromatographic logP: 3.62 for the first, 4.55 for the second.

same assay, conditions: reversed-phase HPLC column (C18), pH 2.7, HPLC reversed-phase C18, acidic range pH 2.7; Preparation Examples (intermediates); read-out: logP

Compared with `O=C(O)c1cc(N2CCN(c3cc(C(F)(F)F)cc(C(F)(F)F)c3)C2=O)nn1-c1ncccc1Cl` [Example No. III-5, 3-{3-[3,5-bis(trifluoromethyl)phenyl]-2-oxoimidazolidin-1-yl}-1-(3-chloropyridin-2-yl)-1H-pyrazole-5-carboxylic acid], `CCOC(=O)c1cc(N2CCN(c3cc(C(F)(F)F)cc(C(F)(F)F)c3)C2=O)nn1-c1ncccc1Cl` [Example No. VII-b, ethyl 3-{3-[3,5-bis(trifluoromethyl)phenyl]-2-oxoimidazolidin-1-yl}-1-(3-chloropyridin-2-yl)-1H-pyrazole-5-carboxylate] is higher in chromatographic logP: 3.47 for the first, 4.82 for the second.

First: COC(=O)c1cc(C(=O)Nc2ccc(C(F)(F)F)cc2)nn1-c1ncccc1Cl [Example No. IX-e, methyl 1-(3-chloropyridin-2-yl)-3-{[4-(trifluoromethyl)phenyl]carbamoyl}-1H-pyrazole-5-carboxylate]
Second: COC(=O)c1cc(Nc2ccc(C(F)(F)F)cn2)nn1-c1ncccc1Cl [Example No. XX, Methyl 1-(3-chloropyridin-2-yl)-3-{[5-(trifluoromethyl)pyridin-2-yl]amino}-1H-pyrazole-5-carboxylate]
The chromatographic logP of the first is higher: 3.54 for the first, 3.14 for the second.

First: O=C(O)c1cc(C#Cc2ccc(OC(F)(F)F)cc2)nn1-c1ncccc1Cl [Example No. III-3, 1-(3-chloropyridin-2-yl)-3-{[4-(trifluoromethoxy)phenyl]ethynyl}-1H-pyrazole-5-carboxylic acid]
Second: O=C(c1ccc(C(F)(F)F)nc1)c1cc(C(=O)O)n(-c2ncccc2Cl)n1 [Example No. III-6, 1-(3-chloropyridin-2-yl)-3-{[6-(trifluoromethyl)pyridin-3-yl]carbonyl}-1H-pyrazole-5-carboxylic acid]
The chromatographic logP of the first is higher: 3.36 for the first, 2.33 for the second.

Going from `COC(=O)c1cc(CN(C)S(=O)(=O)Cc2cc(C(F)(F)F)cc(C(F)(F)F)c2)nn1-c1ncccc1Cl` [Example No. V, methyl 3-{[{[3,5-bis(trifluoromethyl)benzyl]sulphonyl}(methyl)amino]methyl}-1-(3-chloropyridin-2-yl)-1H-pyrazole-5-carboxylate] to `COC(=O)c1cc(Cc2ccc(C(F)(F)F)nc2)nn1-c1ncccc1Cl` [Example No. VII-c, methyl 1-(3-chloropyridin-2-yl)-3-{[6-(trifluoromethyl)pyridin-3-yl]methyl}-1H-pyrazole-5-carboxylate], the chromatographic logP falls from 3.83 to 2.86.

Going from `COC(=O)c1cc(C(=O)O)nn1-c1ncccc1Cl` [Example No. VIII-e, 1-(3-chloropyridin-2-yl)-5-(methoxycarbonyl)-1H-pyrazole-3-carboxylic acid] to `COC(=O)c1cc(C=O)nn1-c1ncccc1Cl` [Example No. VII-e, methyl 1-(3-chloropyridin-2-yl)-3-formyl-1H-pyrazole-5-carboxylate], the chromatographic logP rises from 1.38 to 1.82.
